Measured values from patent US6262084A, “Compounds that inhibit the binding of integrins to their receptors” (Texas Biotechnology Corporation, priority 1999, dated 2001).

Molecular target: T1, α4β1 integrin (Homo sapiens, UniProt P05556+P13612)
T1 construct: Ramos cells fluorescently labeled with calcein; endogenous in cells; host or cells: Ramos cells
Experiment: Inhibition of adhesion of calcein-labeled Ramos cells to CS1 (fibronectin) peptide-conjugated ovalbumin
Format: cell-based
Conditions: for inhibition at 100 µM: Ramos, compound at a concentration of 100 μM, read-out: % A (percent inhibition of cell adhesion); for IC50: dose required to give 50% inhibition, Ramos cell adhesion to CS1-ovalbumin, 30 minutes at 37° C
Experimental: The ability of compounds of the present invention to inhibit binding is described in detail hereinafter in the Examples by a procedure in which a 26-amino acid peptide containing the CS1 sequence of fibroncctin with an N-terminal Cys was coupled to maleimide activated ovalbumin. Ovalbumin and CS1 conjugated ovalbumin were coated onto 96-well polystyrene plates at 5 μg/ml in TBS (50 mM Tris, pH 7.5; 150 mM NaCl) at 4° C. for 16 hours. The plates were washed three times with TBS and blocked with TBS containing 3% BSA at room temperature for 4 hours. Blocked plates were washed three times in binding buffer (TBS; 1 mM MgCl2; 1 mM CaCl2; 1 mM MnCl2) prior to assay. Ramos cells fluorescently labeled with calcein AMC-3099 were resuspended in binding buffer (10^7 cells/ml) and diluted 1:2 with same buffer with or without compound. The cells were added immediately to the wells (2.5×10^5 cells/well) and incubated for 30 minutes at 37° C. Following three washes with binding buffer, adherent cells were lysed and quantitated using a fluorometer.
IC50 is defined as the dose required to give 50% inhibition. The lower the IC50 value and the greater the percentage of inhibition, the more efficient the compound is at prevention of cell adhesion. A stands for inhibition in Table 1, and the percent inhibition indicates the inhibition of cell adhesion when compound is included in the assay at a concentration of 100 μM.

T1 sequence (P13612 34-1032): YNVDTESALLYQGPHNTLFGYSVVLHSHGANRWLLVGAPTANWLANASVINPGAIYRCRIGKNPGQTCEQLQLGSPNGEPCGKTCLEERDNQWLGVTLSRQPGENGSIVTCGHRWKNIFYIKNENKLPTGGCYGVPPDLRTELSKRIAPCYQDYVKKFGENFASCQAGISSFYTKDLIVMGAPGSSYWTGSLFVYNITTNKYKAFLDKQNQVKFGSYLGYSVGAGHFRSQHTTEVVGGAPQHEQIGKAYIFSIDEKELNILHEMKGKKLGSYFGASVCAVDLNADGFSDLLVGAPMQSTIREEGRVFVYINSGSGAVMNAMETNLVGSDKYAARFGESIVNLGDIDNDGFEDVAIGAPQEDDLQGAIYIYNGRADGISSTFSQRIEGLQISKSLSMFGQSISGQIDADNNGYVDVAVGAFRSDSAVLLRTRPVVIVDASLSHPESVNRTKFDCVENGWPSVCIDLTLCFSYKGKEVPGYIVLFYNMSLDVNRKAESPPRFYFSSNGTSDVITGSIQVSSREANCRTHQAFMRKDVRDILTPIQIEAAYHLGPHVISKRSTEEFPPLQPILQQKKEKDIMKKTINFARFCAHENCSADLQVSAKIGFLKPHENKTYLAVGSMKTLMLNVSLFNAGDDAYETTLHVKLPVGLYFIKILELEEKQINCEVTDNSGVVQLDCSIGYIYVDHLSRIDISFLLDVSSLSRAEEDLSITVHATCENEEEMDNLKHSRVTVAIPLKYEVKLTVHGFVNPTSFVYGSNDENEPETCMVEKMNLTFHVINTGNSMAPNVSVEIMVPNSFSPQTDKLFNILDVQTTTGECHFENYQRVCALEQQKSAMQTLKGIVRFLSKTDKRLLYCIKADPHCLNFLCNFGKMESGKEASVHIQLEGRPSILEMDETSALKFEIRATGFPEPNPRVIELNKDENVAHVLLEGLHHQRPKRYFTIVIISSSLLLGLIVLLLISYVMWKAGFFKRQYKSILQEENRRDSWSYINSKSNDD
T1 sequence (P05556 21-798): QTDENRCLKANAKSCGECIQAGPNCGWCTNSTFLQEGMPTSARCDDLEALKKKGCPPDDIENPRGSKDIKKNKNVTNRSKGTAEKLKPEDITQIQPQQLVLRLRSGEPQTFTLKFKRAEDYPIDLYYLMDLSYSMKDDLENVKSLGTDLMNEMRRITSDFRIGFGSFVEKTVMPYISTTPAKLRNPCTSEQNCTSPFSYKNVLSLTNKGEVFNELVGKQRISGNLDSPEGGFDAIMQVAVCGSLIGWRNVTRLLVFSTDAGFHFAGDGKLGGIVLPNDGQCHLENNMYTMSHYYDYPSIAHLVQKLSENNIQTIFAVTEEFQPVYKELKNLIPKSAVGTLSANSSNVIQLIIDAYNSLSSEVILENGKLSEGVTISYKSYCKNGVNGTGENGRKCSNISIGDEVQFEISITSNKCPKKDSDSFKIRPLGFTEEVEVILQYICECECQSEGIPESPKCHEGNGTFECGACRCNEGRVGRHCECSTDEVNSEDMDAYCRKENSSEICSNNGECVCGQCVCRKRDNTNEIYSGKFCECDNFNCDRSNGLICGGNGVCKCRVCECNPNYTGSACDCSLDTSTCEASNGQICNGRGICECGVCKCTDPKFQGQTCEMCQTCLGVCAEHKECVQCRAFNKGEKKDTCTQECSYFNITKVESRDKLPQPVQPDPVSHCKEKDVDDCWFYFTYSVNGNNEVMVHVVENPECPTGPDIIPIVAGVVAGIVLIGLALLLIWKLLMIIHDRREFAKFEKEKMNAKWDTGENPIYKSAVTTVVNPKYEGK

| Structure (SMILES) | inhibition at 100 µM (Table 1) [%] | IC50 (Table 1) [µM] | IC50 (Table 2) [µM] |
| --- | --- | --- | --- |
| CC(C)C[C@@H](CSc1ccccc1)NC(=O)N[C@@H](CC(=O)O)c1ccc2c(c1)OCO2 [(3S)-3-(1,3-benzodioxol-5-yl)-3-{[({(1S)-3-methyl-1-[(phenylsulfanyl)methyl]butyl}amino)carbonyl]amino}propanoic acid] | 100 | 2 | – |
| CSCC[C@@H](CSc1cccc(C)c1)NC(=O)N[C@@H](CC(=O)O)c1ccc2c(c1)OCO2 [(3S)-3-(1,3-benzodioxol-5-yl)-3-[({[(1S)-1-{[(3-methylphenyl)sulfanyl]methyl}-3-(methylsulfanyl)propyl]amino}carbonyl)amino]propanoic acid] | 100 | 0.3 | – |
| CC(C)[C@@H](CSc1ccccc1)NC(=O)N[C@H](CC(=O)O)c1ccc2c(c1)OCO2 [(3R)-3-(1,3-benzodioxol-5-yl)-3-{[({(1S)-2-methyl-1-[(phenylsulfanyl)methyl]propyl}amino)carbonyl]amino}propanoic acid] | 83 | 35 | – |
| CSCC[C@@H](CSc1ccc(NS(=O)(=O)Cc2ccccc2)cc1)NC(=O)N[C@@H](CC(=O)O)c1ccc2c(c1)OCO2 [(3S)-3-(1,3-benzodioxol-5-yl)-3-[({[(1S)-1-[({4-[(benzylsulfonyl)amino]phenyl}sulfanyl)methyl]-3-(methylsulfanyl)propyl]amino}carbonyl)amino]propanoic acid] | 100 | 0.3 | – |
| O=C(O)C[C@H](NC(=O)N[C@@H](CCCCNC(=O)OCc1ccccc1)C(=O)NCCCN1CCCC1=O)c1ccc2c(c1)OCO2 [(9S,13S)-13-(1,3-benzodioxol-5-yl)-3,11-dioxo-9-({[3-(2-oxo-1-pyrrolidinyl)propyl]amino}carbonyl)-1-phenyl-2-oxa-4,10,12-triazapentadecan-15-oic acid] | 100 | 3 | – |
| O=C(O)C[C@H](NC(=O)NC(CSc1ccccc1)CSc1ccccc1)c1ccc2c(c1)OCO2 [(3S)-3-(1,3-benzodioxol-5-yl)-3-{[({2-(phenylsulfanyl)-1-[(phenylsulfanyl)methyl]ethyl}amino)carbonyl]amino}propanoic acid] | 99 | 1.5 | – |
| CCCC[C@H](NC(=O)N[C@@H](CC(=O)O)c1ccc2c(c1)OCO2)C(=O)NCc1ccc(NCc2nccs2)cc1 [Compound 40, 3(3S)-3-(1,3-benzodioxol-5-yl)-3-([((1S)-1-[(4-(1,3-thiazol-2-ylmethyl)aminobenzyl)amino]carbonylpentyl)amino]carbonylamino)propanoic acid] | – | – | 0.12 |
| CSCC[C@@H](CSc1ccccc1)NC(=O)N[C@@H](CC(=O)O)c1ccc2c(c1)OCO2 [(3S)-3-(1,3-benzodioxol-5-yl)-3-(((((1S)-3-(methylsulfanyl)-1-((phenylsulfanyl)methyl)propyl)amino)carbonyl)amino)propanoic acid] | 100 | 0.3 | – |
| CCCC[C@H](NC(=O)N[C@@H](CC(=O)O)c1ccc2c(c1)OCO2)C(=O)NCc1cccs1 [Compound 34, (3S)-3-(1,3-benzodioxol-5-yl)-3-([((1S)-1-[(2-thienylmethyl)amino]carbonylpentyl)amino]carbonylamino)propanoic acid] | – | – | 0.25 |
| CCSC[C@@H](CSc1ccccc1)OC(=O)N[C@@H](CC(=O)O)c1ccc2c(c1)OCO2 [(3S)-3-(1,3-benzodioxol-5-yl)-3-{[({(1S)-2-(ethylthio)-1-[(phenylthio)methyl]ethyl}oxy)carbonyl]amino}propanoic acid] | 100 | 1 | – |
| CCCC[C@@H](CSc1cccc(NCc2ccccc2C)c1)OC(=O)N[C@@H](CC(=O)O)c1ccc2c(c1)OCO2 [Compound 15, (3S)-3-(1,3-benzodioxol-5-yl)-3-{[({(1S)-1-[({3-[(2-methylbenzyl)amino]phenyl}thio)methyl]pentyl}oxy)carbonyl]amino}propanoic acid] | 100 | 25 | – |
| COc1ccc(CNC(=O)[C@H](CC(C)C)NC(=O)NC(CC(=O)O)c2ccc3c(c2)OCO3)cc1 (stereo partly drawn) [3-(1,3-benzodioxol-5-yl)-3-({[((1S)-1-{[(4-methoxybenzyl)amino]carbonyl}-3-methylbutyl)amino]carbonyl}amino)propanoic acid] | 100 | 0.5 | – |
| CCCC[C@H](NC(=O)N[C@@H](CC(=O)O)c1ccc2c(c1)OCO2)C(=O)NCc1ccc(NCc2ccccc2C)cc1 [Compound 39] | – | – | 0.05 |
| O=C(O)C[C@H](NC(=O)N[C@@H](CSCc1ccccc1)CSc1ccccc1)c1ccc2c(c1)OCO2 [(3S)-3-(1,3-benzodioxol-5-yl)-3-{[({(1S)-2-(benzylsulfanyl)-1-[(phenylsulfanyl)methyl]ethyl}amino)carbonyl]amino}propanoic acid] | 100 | 0.02 | – |
| CCOC[C@@H](CSc1ccccc1)OC(=O)N[C@@H](CC(=O)O)c1ccc2c(c1)OCO2 [(3S)-3-(1,3-benzodioxol-5-yl)-3-{[({(1S)-2-ethoxy-1-[(phenylthio)methyl]ethyl}oxy)carbonyl]amino}propanoic acid] | 100 | 5 | – |
| CC(C)(C)OC(=O)C[C@H](NC(=O)N[C@@H](CC(=O)O)c1ccc2c(c1)OCO2)c1ccc2c(c1)OCO2 [(3S)-3-(1,3-benzodioxol-5-yl)-3-[({[(1S)-1-(1,3-benzodioxol-5-yl)-3-(tert-butoxy)-3-oxopropyl]amino}carbonyl)amino]propanoic acid] | 100 | 4 | – |
| CCCSC[C@@H](CSc1ccccc1)NC(=O)N[C@@H](CC(=O)O)c1ccc2c(c1)OCO2 [(3S)-3-(1,3-benzodioxol-5-yl)-3-{[({(1S)-2-(phenylsulfanyl)-1-[(propylsulfanyl)methyl]ethyl}amino)carbonyl]amino}propanoic acid] | 100 | 0.5 | – |
| COC(=O)NCCCC[C@H](NC(=O)N[C@@H](CC(=O)O)c1ccc2c(c1)OCO2)C(=O)NCc1nc2ccccc2[nH]1 [(9S,13S)-9-{[(1H-benzimidazol-2-ylmethyl)amino]carbonyl}-13-(1,3-benzodioxol-5-yl)-3,11-dioxo-2-oxa-4,10,12-triazapentadecan-15-oic acid] | 100 | 2 | – |
| CSCC[C@@H](CSc1ccccc1)NC(=S)N[C@@H](CC(=O)O)c1ccc2c(c1)OCO2 [(3S)-3-(1,3-benzodioxol-5-yl)-3-{[({(1S)-3-(methylsulfanyl)-1-[(phenylsulfanyl)methyl]propyl}amino)carbothioyl]amino}propanoic acid] | 100 | 3 | – |
| CSCC[C@@H](CSc1ccccc1C)NC(=O)N[C@@H](CC(=O)O)c1ccc2c(c1)OCO2 [(3S)-3-(1,3-benzodioxol-5-yl)-3-[({[(1S)-1-{[(2-methylphenyl)sulfanyl]methyl}-3-(methylsulfanyl)propyl]amino}carbonyl)amino]propanoic acid] | 100 | 0.3 | – |
| CC(C)[C@@H](CSCCc1ccccc1)NC(=O)N[C@@H](CC(=O)O)c1ccc2c(c1)OCO2 [(3S)-3-(1,3-benzodioxol-5-yl)-3-{[({(1S)-2-methyl-1-[(phenethylsulfanyl)methyl]propyl}amino)carbonyl]amino}propanoic acid] | 98 | 20 | – |
| CC(C)[C@@H](CSc1ccccc1)NC(=O)NC(CC(=O)O)c1ccc2c(c1)OCO2 (stereo partly drawn) [3-(1,3-benzodioxol-5-yl)-3-{[({(1S)-2-methyl-1-[(phenylsulfanyl)methyl]propyl}amino)carbonyl]amino}propanoic acid] | 99 | 5 | – |
| CCCC[C@@H](CSc1ccccc1)NC(=O)N[C@@H](CC(=O)O)c1ccc2c(c1)OCO2 [(3S)-3-(1,3-benzodioxol-5-yl)-3-{[({(1S)-1-[(phenylsulfanyl)methyl]pentyl}amino)carbonyl]amino}propanoic acid] | 100 | 0.4 | – |
| CSCC[C@@H](CSc1ccc(NC(C)=O)cc1)NC(=O)N[C@@H](CC(=O)O)c1ccc2c(c1)OCO2 [(3S)-3-[({[(1S)-1-({[4-(acetylamino)phenyl]sulfanyl}methyl)-3-(methylsulfanyl)propyl]amino}carbonyl)amino]-3-(1,3-benzodioxol-5-yl)propanoic acid] | 100 | 3 | – |
| C=CCOC[C@@H](CSc1ccccc1)NC(=O)N[C@@H](CC(=O)O)c1ccc2c(c1)OCO2 [(3S)-3-{[({(1S)-2-(allyloxy)-1-[(phenylthio)methyl]ethyl}amino)carbonyl]amino}-3-(1,3-benzodioxol-5-yl)propanoic acid] | 100 | 0.3 | – |
| CCCCC(CSc1ccccc1)OC(=O)N[C@@H](CC(=O)O)c1ccc2c(c1)OCO2 (stereo partly drawn) [(3S)-3-(1,3-benzodioxol-5-yl)-3-{[({1-[(phenylsulfanyl)methyl]pentyl}oxy)carbonyl]amino}propanoic acid] | 100 | 6 | – |
